Source: patent US20220347118A1, “STABLE MEDICINAL CANNABIDIOL COMPOSITIONS” (CARDIOL THERAPEUTICS INC., priority 2019, published 2022)

Assays:
Solubility of CBD in BCP = format: physicochemical; details: in 1 mL of BCP and its derivatives
Procedure: For example, at least 300 mg of CBD can be dissolved in 1 mL of BCP and its derivatives. The enhanced stability of the CBD provides a composition with an acceptable shelf life and which can provide consistency in dosing and enhanced safety.

CB2 receptor = CB2 receptor (Homo sapiens, UniProt P34972); details: Proc Natl Acad Sci USA. 2008; 105(26):9099-104; cited from earlier work
Sequence of CB2 receptor (P34972 whole entry): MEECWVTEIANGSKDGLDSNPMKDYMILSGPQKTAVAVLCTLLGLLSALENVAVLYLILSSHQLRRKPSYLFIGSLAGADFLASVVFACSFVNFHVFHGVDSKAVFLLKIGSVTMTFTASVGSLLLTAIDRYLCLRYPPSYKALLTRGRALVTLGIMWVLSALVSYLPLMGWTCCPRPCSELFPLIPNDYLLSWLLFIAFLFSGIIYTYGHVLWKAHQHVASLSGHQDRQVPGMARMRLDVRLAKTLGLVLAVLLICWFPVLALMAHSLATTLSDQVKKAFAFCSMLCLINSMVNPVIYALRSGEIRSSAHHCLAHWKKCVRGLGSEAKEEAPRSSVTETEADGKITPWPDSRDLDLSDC

| Structure (SMILES) | amount of CBD that can be dissolved in BCP (Solubility of CBD in BCP) | CB2 receptor binding / functional activity (CB2 receptor) |
| --- | --- | --- |
| C=C(C)[C@@H]1CCC(C)=C[C@H]1c1c(O)cc(CCCCC)cc1O [CBD, cannabidiol] | at least 300 mg | – |
| C=C1CC/C=C(\C)CC[C@@H]2[C@@H]1CC2(C)C [β-caryophyllene, trans-(1R,9S)-8-Methylene-4,11,11-trimethylbicyclo[7.2.0]undec-4-ene] | – | selectively binds to the CB2 receptor and is a functional CB2 agonist |
